Test [1] has as its target recombinant human PIM2 (Homo sapiens (Human), UniProt Q9P1W9). Put plainly: PIM-2 assay (33P-ATP filter binding). The conditions noted are these: for PIM2: % inh […]: at […] compound. The test is classed as biochemical.
Method: Test compounds dissolved and diluted in DMSO (2 μl) were added to a reaction mixture comprising 10 μl of 5× Reaction Buffer (40 mM MOPS pH 7.0, 5 mM EDTA), 10 μl of recombinant human PIM2 solution (4 ng PIM-2 dissolved in dilution buffer (20 mM MOPS pH 7.0; EDTA 1 mM; 5% Glycerol; 0.01% Brij 35; 0.1%; 0.1% 2-mercaptoethanol; 1 mg/ml BSA)) and 8 ul of water.
The test system of test [2] is BxPC3 human pancreatic adenocarcinoma cells. Put plainly: Cell proliferation assay with Alamar Blue (AB), BxPC3. The class given is cell-based. Here is the method: (§1) A representative cell-proliferation assay protocol using Alamar Blue dye (stored at 4° C., use 20 ul per well) is described hereafter.
(§2) a. Split and trypsinize cells.
(§3) b. Count cells using hemocytometer.
(§4) c. Plate 4,000-5,000 cells per well in 100 μl of medium and seed into a 96-well plate according to the following plate layout. Add cell culture medium only to wells B10 to B12.
(§5) d. Add 100 μl of 2× drug dilution to each well in a concentration shown in the plate layout above. […] Total volume is 200 μl/well.
(§6) e. Incubate four (4) days at 37° C., 5% CO2 in a humidified incubator.
(§7) f. Add […] Alamar Blue reagent to each well.
(§8) g. Incubate for four (4) hours at 37° C., 5% CO2 in a humidified incubator.
(§9) h. Record fluorescence at an excitation wavelength of 544 nm and emission wavelength of 590 nm using a microplate reader.
(§10) In the assays, cells are cultured with a test compound for approximately four days, the dye is then added to the cells and fluorescence of […] dye is detected after approximately four hours. Different types of cells can be utilized in the assays (e.g., HCT-116 human colorectal carcinoma cells, PC-3 human prostatic cancer cells, MDA-MB231 human breast cancer cells, K-562 human chronic myelogenous leukemia (CML) cells, MiaPaca human pancreatic carcinoma cells, MV-4 human acute myeloid leukemia cells, and BxPC3 human pancreatic adenocarcinoma cells).

In test [3] the test system is MDAMB453. Kind of test: Cell proliferation assay with Alamar Blue (AB), MDAMB453. The class given is cell-based. Here is the method: as §1, §2, §3, §4, §5, §6, §7, §8, §9, §10
Test [4] concerns the target CK2 ααββ (Homo sapiens (Human), UniProt P68400). Put plainly: CK2 assay (cell-free, 33P-ATP, phosphocellulose filter plate). The test is classed as biochemical.
Setting [5] is: PIM2: IC50 (5 μM ATP), 5 μM ATP.
Where [6] appears, read: Homo sapiens, BXPC-3, read-out: AB: BxPC3.
[7] abbreviates: Homo sapiens, MDA-MB-453, MDAMB453 cells, read-out: AB: MDAMB453.
The mark [8] stands for this setting: MDAMB453 cells, read-out: AB: MDAMB453 IC50.

The values below come from patent US9303033B2, “Pyrazolopyrimidines and related heterocycles as CK2 inhibitors” (SENHWA BIOSCIENCES, INC., priority 2009, dated 2016).

Read-outs that look alike come from different tables or passages of the source.

Sequence of CK2 ααββ (P68400 whole entry): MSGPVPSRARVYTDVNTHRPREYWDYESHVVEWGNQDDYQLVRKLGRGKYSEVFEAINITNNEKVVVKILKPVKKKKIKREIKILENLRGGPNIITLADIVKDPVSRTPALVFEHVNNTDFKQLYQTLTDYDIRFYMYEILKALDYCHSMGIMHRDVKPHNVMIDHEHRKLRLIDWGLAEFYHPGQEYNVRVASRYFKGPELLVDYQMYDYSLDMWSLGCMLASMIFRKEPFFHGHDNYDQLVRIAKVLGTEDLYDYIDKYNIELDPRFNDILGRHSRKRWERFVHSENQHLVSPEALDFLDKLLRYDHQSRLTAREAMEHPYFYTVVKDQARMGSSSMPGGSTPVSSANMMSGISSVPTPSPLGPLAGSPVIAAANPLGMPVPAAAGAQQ
Sequence of CK2 ααββ (P67870 whole entry partner): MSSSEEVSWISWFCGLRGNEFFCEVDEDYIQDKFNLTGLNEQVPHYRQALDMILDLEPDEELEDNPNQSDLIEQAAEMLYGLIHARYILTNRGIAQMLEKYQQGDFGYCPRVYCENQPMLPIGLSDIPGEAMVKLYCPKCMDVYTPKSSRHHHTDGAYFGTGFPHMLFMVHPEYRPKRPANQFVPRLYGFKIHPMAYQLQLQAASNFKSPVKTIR
Sequence of recombinant human PIM2 (Q9P1W9 whole entry): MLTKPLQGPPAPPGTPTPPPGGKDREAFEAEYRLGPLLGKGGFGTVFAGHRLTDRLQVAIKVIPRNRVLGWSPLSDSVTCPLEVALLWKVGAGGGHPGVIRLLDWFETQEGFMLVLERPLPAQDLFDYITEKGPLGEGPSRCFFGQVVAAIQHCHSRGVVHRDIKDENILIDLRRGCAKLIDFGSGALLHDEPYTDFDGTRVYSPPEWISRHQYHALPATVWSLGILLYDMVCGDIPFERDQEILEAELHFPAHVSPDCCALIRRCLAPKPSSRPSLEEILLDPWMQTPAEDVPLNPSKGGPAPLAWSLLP

Turning to `O=C1NC(=O)/C(=C/c2cnn3c(Nc4cccc(C(=O)O)c4)cc(Nc4cccc(Cl)c4)nc23)N1` [Example D7], the IC50 in test [1] (setting [5]) was greater than 2.5 µM; in test [2] (setting [6]), greater than 30 µM; in test [3] (setting [7]) it was 14.2 µM; in test [4], less than 0.1 µM.

As to `O=C1NC(=O)/C(=C/c2cnn3c(Nc4cccc(C(=O)N5CCNCC5)c4)cc(Nc4cccc(Cl)c4)nc23)N1` [Example F7], the IC50 in test [1] (setting [5]) was 1.23 µM; in test [2] (setting [6]), 14 µM; in test [3] (setting [7]) it was 1.59 µM; in test [4], less than 0.01 µM.

For `Nc1cc(NC2CC2)n2ncc(/C=C3\NC(=O)NC3=O)c2n1` [Example K2], the IC50 is greater than 2.5 µM in test [1] (setting [5]), 9.93 µM in test [2] (setting [6]), 11.8 µM in test [3] (setting [7]) and less than 0.01 µM in test [4].

`O=C1NC(=O)/C(=C/c2cnn3c(NC4CC4)cc(-c4cccc(CN5CCOCC5)c4)nc23)N1` [Example M4]: the IC50 in test [1] (setting [5]) was 1.25 µM; in test [2] (setting [6]) it was 14.4 µM; in test [3] (setting [7]) it was greater than 30 µM; in test [4], less than 0.01 µM.

As for `CS(=O)(=O)Nc1cccc(-c2cc(NC3CC3)n3ncc(/C=C4\NC(=O)NC4=O)c3n2)c1` [Example C4], the IC50 in test [1] (setting [5]) was 2.4 µM; in test [2] (setting [6]) it was 3.28 µM; in test [3] (setting [7]), 1.49 µM; in test [4] it was less than 0.1 µM.

Consider `O=C1NC(=O)/C(=C/c2cnn3c(NC4CC4)cc(-c4cccc(NS(=O)(=O)C5CC5)c4)nc23)N1` [Example Z4], for which the IC50 was greater than 2.5 µM in test [1] (setting [5]), 29 µM in test [2] (setting [6]), 15.7 µM in test [3] (setting [7]) and less than 0.01 µM in test [4].

For the molecule `CN(C)c1ccc(-c2cc(NC3CC3)n3ncc(/C=C4\NC(=O)NC4=O)c3n2)cc1` [Example I4], the IC50 in test [1] (setting [5]) is greater than 2.5 µM; in test [2] (setting [6]) it was 1.9 µM; in test [3] (setting [7]), 0.683 µM; in test [4], less than 0.1 µM.

Turning to `O=C1NC(=O)/C(=C/c2cnn3c(NC4CC4)cc(-c4cccc(OCC(=O)N5CCCC5)c4)nc23)N1` [Example H4], the IC50 was greater than 2.5 µM in test [1] (setting [5]), 14.5 µM in test [2] (setting [6]), 1.96 µM in test [3] (setting [7]) and less than 0.01 µM in test [4].

As to `N#Cc1ccc(Oc2cc(NC3CC3)n3ncc(C=C4NC(=O)NC4=O)c3n2)c(Cl)c1` [Compound V38], the IC50 in test [1] (Tables 41B, 42B, read-out: PIM2: IC50) was greater than 2.5 µM; in test [2] (read-out: AB: BxPC3 IC50), 5.21 µM; in test [3] (setting [8]) it was 1.38 µM; in test [4], less than 0.01 µM.

Take `CN(C)CCCOc1ccc(Nc2cc(NC3CC3)n3ncc(C=C4NC(=O)NC4=O)c3n2)cc1Cl` [Example T42]: the “PIM2: % inh […]” value in test [1] was 44.33%. Moreover, the figures for the IC50 in test [2] (read-out: AB: BxPC3 IC50), in test [3] (setting [8]) and in test [4] were 5.33 µM, 2.09 µM and less than 0.01 µM, respectively.

`O=C1NC(=O)/C(=C/c2cnn3c(NC4CC4)cc(NN4CCOCC4)nc23)N1` [Example S2]: the IC50 in test [1] (setting [5]) was 1.3 µM; in test [2] (setting [6]) it was 3.88 µM; in test [3] (setting [7]), 3.51 µM; in test [4], less than 0.01 µM.

`CN1C(=O)NC(=Cc2cnn3c(NC4CC4)cc(Nc4ccc(C#N)cc4)nc23)C1=O` [Example D42]: the “PIM2: % inh […]” value in test [1] was −39.275%. For the same molecule, the results for the IC50 in test [2] (read-out: AB: BxPC3 IC50), in test [3] (setting [8]) and in test [4] were 2.81 µM, 0.693 µM and less than 0.1 µM, respectively.

In the case of `CN1CCC(Nc2cc(NC3CC3)n3ncc(/C=C4\NC(=O)NC4=O)c3n2)CC1` [Example V2], the IC50 in test [1] (setting [5]) was 1.37 µM; in test [2] (setting [6]) it was 1.63 µM; in test [3] (setting [7]), 1.48 µM; in test [4], less than 0.01 µM.

`CCCS(=O)(=O)Nc1cccc(-c2cc(NC3CC3)n3ncc(/C=C4\NC(=O)NC4=O)c3n2)c1` [Example T4]: the IC50 in test [1] (setting [5]) is greater than 2.5 µM; in test [2] (setting [6]) it was 2.74 µM; in test [3] (setting [7]), 1.71 µM; in test [4], less than 0.1 µM.

For `CC(O)c1cccc(-c2cc(NC3CC3)n3ncc(/C=C4\NC(=O)NC4=O)c3n2)c1` (stereo not shown) [Example S4], the IC50 was greater than 2.5 µM in test [1] (setting [5]), 4.61 µM in test [2] (setting [6]), 20 µM in test [3] (setting [7]) and less than 0.01 µM in test [4].

For the molecule `O=C1NC(=O)/C(=C/c2cnn3c(NC4CC4)cc(-c4ccc(O)cc4)nc23)N1` [Example L4], the IC50 was 1.47 µM in test [1] (setting [5]), 0.725 µM in test [2] (setting [6]), 1.79 µM in test [3] (setting [7]) and less than 0.01 µM in test [4].

For `O=C1NC(=O)/C(=C/c2cnn3c(NC4CC4)cc(NCC4CC4)nc23)N1` [Example T2], the IC50 in test [1] (setting [5]) is 0.998 µM; in test [2] (setting [6]), 6.9 µM; in test [3] (setting [7]), 2.49 µM; in test [4], less than 0.01 µM.

As to `O=C1NC(=O)/C(=C/c2cnn3c(NC4CC4)cc(Nc4ccc(Cl)cc4)nc23)N1` [Example I1], the IC50 in test [1] (setting [5]) is greater than 2.5 µM; in test [2] (setting [6]) it was 15.1 µM; in test [3] (setting [7]), 11.1 µM; in test [4], less than 0.01 µM.

For `Cc1c(Nc2ccc(C#N)cc2Cl)nc2c(C=C3NC(=O)NC3=O)cnn2c1NC1CC1` [Example D46], in test [1], the “PIM2: % inh […]” value is reported as 53.934%. The IC50 was 29.9 µM in test [2] (read-out: AB: BxPC3 IC50), 6.24 µM in test [3] (setting [8]) and less than 0.01 µM in test [4].

As to `Cc1cc(COc2cccc(-c3cc(NC4CC4)n4ncc(/C=C5\NC(=O)NC5=O)c4n3)c2)no1` [Example G4], the IC50 in test [1] (setting [5]) was greater than 2.5 µM; in test [2] (setting [6]) it was 1.19 µM; in test [3] (setting [7]), 1.15 µM; in test [4], less than 0.01 µM.

Consider `O=C1NC(=O)/C(=C/c2cnn3c(NC4CC4)cc(-c4cccc(C(F)(F)F)c4)nc23)N1` [Example N4], for which the IC50 in test [1] (setting [5]) was greater than 2.5 µM; in test [2] (setting [6]), 12.5 µM; in test [3] (setting [7]), greater than 30 µM; in test [4], less than 0.01 µM.

In the case of `CN(C)C(=O)N1CCC(Nc2cc(Nc3cccc(Cl)c3)nc3c(/C=C4\NC(=O)NC4=O)cnn23)CC1` [Example N5], the IC50 is greater than 2.5 µM in test [1] (setting [5]), 17.4 µM in test [2] (setting [6]), 1.57 µM in test [3] (setting [7]) and less than 0.1 µM in test [4].

For `O=C1NC(=O)/C(=C/c2cnn3c(NC4CC4)cc(-c4cccc(OCC5CC5)c4)nc23)N1` [Example F4], the IC50 was greater than 2.5 µM in test [1] (setting [5]), 6.59 µM in test [2] (setting [6]), 1.3 µM in test [3] (setting [7]) and less than 0.01 µM in test [4].

Take `O=C1NC(=O)/C(=C/c2cnn3c(NCC4CC4)cc(Nc4cccnc4)nc23)N1` [Example V1]: the IC50 in test [1] (setting [5]) is greater than 2.5 µM; in test [2] (setting [6]) it was 6.19 µM; in test [3] (setting [7]) it was 5.09 µM; in test [4] it was less than 0.1 µM.

`O=C1NC(=O)/C(=C/c2cnn3c(NC4CC4)cc(Nc4cccc(F)c4)nc23)N1` [Example D1]: the IC50 in test [1] (setting [5]) is 2.2 µM; in test [2] (setting [6]), 4.07 µM; in test [3] (setting [7]), 1.34 µM; in test [4], less than 0.01 µM.

Turning to `NCc1cccc(-c2cc(NC3CC3)n3ncc(/C=C4\NC(=O)NC4=O)c3n2)c1` [Example R4], the IC50 in test [1] (setting [5]) is 0.0487 µM; in test [2] (setting [6]), 10.6 µM; in test [3] (setting [7]), 14.9 µM; in test [4] it was less than 0.01 µM.

With `O=C1NC(=O)/C(=C/c2cnn3c(NC4CC4)cc(-c4cccc(OCCN5CCOCC5)c4)nc23)N1` [Example A4], the IC50 in test [1] (setting [5]) is greater than 2.5 µM; in test [2] (setting [6]), greater than 30 µM; in test [3] (setting [7]) it was greater than 30 µM; in test [4], less than 0.01 µM.

Turning to `CC1CN(C(C)c2cccc(Nc3cc(NC4CC4)n4ncc(/C=C5\NC(=O)NC5=O)c4n3)c2)CC(C)O1` (stereo not shown) [Example G1], the IC50 is greater than 2.5 µM in test [1] (setting [5]), greater than 30 µM in test [2] (setting [6]), 10 µM in test [3] (setting [7]) and less than 0.01 µM in test [4].
